These results are taken from the RepoRT retention time repository.

A short description of this data set: RP, Waters ACQUITY UPLC BEH C18, 50 × 2.1 mm, 1.7 µm, 40 °C, 0.6 mL/min, estimated dead time 0.18 min; A: water + 0.1% formic acid, pH 3; B: acetonitrile + 0.1% formic acid, pH 3; gradient (min/%B) 0/5 7/100 8/100. The following applies: stereoisomer not certain.
Consider `C/C=C1/CN(C)[C@@H]2Cc3c([nH]c4ccccc34)C(=O)C[C@H]1C2C(=O)OC` (stereo partly specified), for which the LC retention time is 1.4 min. To `COC(=O)CC(C1=C2OC(=O)C(C(=O)CC(C)C)=C(O)C2(CC=C(C)C)CC(CC=C(C)C)C1(C)C)c1ccccc1` (stereo unspecified) belongs 6.83 min; to `CCN1CC2(COC(=O)c3ccccc3NC(=O)CCC(=O)O)CCC(OC)C34C5CC6C(OC)CC(O)(C5C6OC)C(O)(C(OC)C23)C14` (stereo unspecified), 2.22 min. Consider `O=C(/C=C/c1ccc(O)cc1)OC[C@H]1O[C@@H](Oc2cc(O)c3c(=O)cc(-c4ccc(O)cc4)oc3c2)[C@H](OC(=O)/C=C/c2ccc(O)cc2)[C@@H](O)[C@@H]1O`, for which the LC retention time was 3.15 min. Under `CC(=O)OC(CCc1ccccc1)Cc1cc(=O)c2c(o1)OC1(C)CCC(C(C)C)C2C1` (stereo unspecified) stands 4.97 min.

Regarding `CC[C@@H]1CN(C)C[C@@]2(C(=O)OC)Cc3c([nH]c4ccccc34)C(=O)C[C@@H]12`, the LC retention time is 1.76 min.

For `CC1(C)CCC[C@]2(COC(=O)/C=C/c3ccc(O)c(O)c3)C1CC[C@@]13C[C@@H](CCC12)[C@@](O)(CO)C3` (stereo partly specified), the LC retention time was 3.16 min. To `CC(C)=CCC1CC23CC(CC=C(C)C)C(C)(C)C(CC=C(C)C)(C(=O)C(C(=O)c4ccc(O)c(O)c4)=C2OC1(C)C)C3=O` (stereo unspecified) belongs 5.93 min; to `C/C(=C\C1CC(C2CCC34CC23C=CC2C3(C)CC=C5CC(c6ccccc6)OCC5(C)C3CC(O)C24C)C(=O)O1)CO` (stereo unspecified), 5.22 min; to `C=C1COC(=O)C12C[C@@]1(C)C([C@@H](OC(=O)/C(C)=C\C)CC[C@@H]1C)[C@H]2OC(C)=O` (stereo partly specified), 4.16 min. Under `C/C(=C\CC/C=C(\C)CC/C=C(\C)CCC(O)C(C)(C)O)CC/C=C(\C)CCC(O)C(C)(C)O` (stereo unspecified) stands 5.34 min; under `O=C1CC(c2ccc(O)cc2)Oc2c1c(O)cc(O)c2C1C(=O)c2c(O)cc(O)cc2OC1c1ccc(O)cc1` (stereo unspecified), 2.36 min; under `C[C@@H]1CC2(N=CCS2)[C@]2(O)OC3C[C@@]4(C=O)C(CCC5C4CC[C@]4(C)C(C6=CC(=O)OC6)CC[C@]54O)CC3OC2O1` (stereo partly specified), 0.662 min. To `C=C1COC(=O)C12C[C@@]1(C)C([C@@H](OC(=O)/C=C/SC)CC[C@@H]1C)[C@H]2OC(C)=O` (stereo partly specified) belongs 4.07 min; to `CC1CCC2(OC1)OC1CC3C4C(O)C(=O)C5(O)C(O)C(O)C(O)C(O)C5(C)C4CCC3(C)C1C2C` (stereo unspecified), 3.19 min. For the molecule `C=C(C(=O)C(OC(C)=O)C(C)C1C(OC(C)=O)CC2(C)C3C4OC4C4C(C)C(=O)C=CC45CC35CCC12C)C(C)CO` (stereo unspecified), the LC retention time was 3.48 min.

`CC1CC(O)C2(C)C(CCC(O)C2(C)O)C1(C)CC(=O)c1ccoc1` (stereo unspecified): the LC retention time is 2.35 min. Under `CC(C)=CCc1c(O)cc2oc(-c3ccc(O)cc3)c(O)c(=O)c2c1O` stands 3.98 min; under `CCCCCCCCCCC/C=C\CC[C@@H]1CCC[C@@H](C)N1` [(2R,6S)-2-methyl-6-[(3Z)-pentadec-3-en-1-yl]piperidine], 4.84 min.

On to `C=C(CO)C(=O)OC1CC(=C)C2CC(=O)C(C)C2C2OC(=O)C(=C)C12` (stereo unspecified), for which the LC retention time is 3.08 min. To `CCC(O)C(/C=C1\C(=O)C=CC1(O)CCCCCCCC(=O)OC)OC(C)=O` (stereo unspecified) belongs 3.08 min. To `O=C1CC(c2ccc(O)cc2)Oc2cc3c(c(O)c21)C(C(=O)c1ccc(O)cc1O)C(c1ccc(O)cc1)O3` (stereo unspecified) belongs 2.78 min; to `COc1c(-c2c(C)cc(OC)c3c(OC)cccc23)c(O)cc2c1C(C)NC(C)C2` (stereo unspecified), 2.1 min.

As to `COc1c(O)c(O)c(-c2c(O)c(O)c(OC)c3oc4ccccc4c23)c2c1oc1ccccc12`, the LC retention time is 3.58 min.

On to `COc1ccc2cc1-c1cc(ccc1O)C[C@@H]1NCCc3cc4c(cc31)Oc1c(c(OC)c(O)c3c1[C@H](C2)N(C)CC3)O4`, for which the LC retention time was 1.69 min. To `COc1cc(CC(CO)C(CO)Cc2ccc(O)c(OC)c2)ccc1O` (stereo unspecified) [2,3-bis[(4-hydroxy-3-methoxyphenyl)methyl]butane-1,4-diol] belongs 0.28 min; to `Cn1c(Cc2ccccc2)nc(=O)c2ccccc21` [2-benzyl-1-methyl-1,4-dihydroquinazolin-4-one], 1.8 min; to `C=C1CC23CCC4C(C)(C(=O)O)CCCC4(C)C2CCC1C3` (stereo unspecified), 5.69 min. Under `COc1cc(CCN(C)C)c2ccc3cc4c(c5c3c2c1OC5)OCO4` stands 2.24 min; under `CCCCCCCCCCCCC[C@@H]1CCC[C@@H](C)N1` [(2R,6R)-2-methyl-6-tridecylpiperidine], 4.58 min. Under `C=C(C(=O)C(O)C(C)C1C(OC(C)=O)CC2(C)C3CCC4C(C)C(=O)C=CC45CC35CCC12C)C(C)C` (stereo unspecified) stands 5.56 min; under `COc1ccc2c3c(c4cc(OC)c(OC)cc4c2c1)CC1CCCN1C3` (stereo unspecified), 2.27 min. As for `CC(=O)OCC1=C2C(OC(=O)/C=C(/C)COC(C)=O)CC(C)C(=O)CC(=O)C3(C)OC3C2OC1=O` (stereo unspecified), the LC retention time is 3.5 min. `CC/C=C/CC(O)C(O)/C=C/C(O)CCCCCCCC(=O)O` (stereo unspecified) [(10E,15E)-9,12,13-trihydroxyoctadeca-10,15-dienoic acid]: the LC retention time is 2.6 min.

As for `CCC1CN(C)CC2Cc3c([nH]c4ccccc34)C(=O)CC12` (stereo unspecified), the LC retention time is 1.71 min. To `C=C(C(=O)C(O)C(C)C1C(OC(C)=O)CC2(C)C3CCC4C(C)C(=O)CCC45CC35CCC12C)C(C)CO` (stereo unspecified) belongs 4.6 min.
